# Laboratory results taken from patent EP1030659B1 (Warner-Lambert Company LLC, priority 1997, dated 1999).
# pIC50, pKd, pKi: −log10 of the molar value. Where two headings read alike, the source gives them in different places.
# Tests used:
# [1] = tested on: Male Swiss-Webster mice; assay: H1 antihistamine (triprolidine) interaction studies, locomotor activity; details: for interaction with triprolidine pretreatment (central nervous system stimulation, horizontal movement): pretreatment with 0.01, 0.1, or 1.0 mg/kg triprolidine 20 minutes before the sympathomimetic
# [2] = tested on: Male Swiss-Webster mice; assay: Locomotor stimulant effects (horizontal locomotor activity); assay type: in vivo; details: i.p.; for ED50: Mus musculus, ip, dose resulting in ½ the maximal stimulant effect, read-out: Stimulation Potency (ED50); for locomotor stimulant effects, time course (in words): 2-hour session; for Stimulation Efficacy: ratio of the maximal stimulant effect of the test compound to the maximal effect of (+)-amphetamine
# [3] = target: α1-receptors; assay: Alpha-1 binding, 3H-prazocin, canine lung membranes; design: species or system mongrel dogs; details: for pKi: Ki = IC50 / 1 + I/Kd, Kd from saturation analysis, unit inferred
# [4] = Nasal airway pressure (decongestant activity) in normal and histamine-challenged rats; assay type: in vivo, Sprague Dawley rats; details: for Mean Decrease in Nasal Airway Pressure / effect on normal airway decongestion (in words): rats; for Mean Decrease in Nasal Airway Pressure: mean ± standard error; for Post Drug nasal airway pressure: 100% dose into the jugular vein; for %Change in nasal airway pressure: 100% dose; for effect on normal airway decongestion (in words): 75% dose
# [5] = Dosage required to raise mean arterial pressure (MAP) by 10% in dogs; assay type: in vivo; details: experimentally determined
# Method: (§1) Nasal airway pressure was measured using a Validyne pressure transducer (Validyne Engineering, Northridge, CA) with a 2.25 cm H2O range membrane connected to a multipen recorder (Grass Instruments, Quincy, MA). Air was passed through an in-line direct measure flow meter (Gilmont Instruments, Barrington, IL) connected to the nasal opening cannula. Pressure was measured in the line with a constant flow rate (150 ml/min) of air. Drugs were directly injected into the jugular vein using a 30 gauge needle. All injections were of a constant 0.1 ml volume. In the congestion challenged groups congestion was achieved by an intranasal administration of histamine (50 mM, 0.02 ml/nostril). The histamine was expelled after 2 minutes with a short nasal cannula airflow and subsequent enantiomeric drug doses were directly injected into the jugular vein. The dosage chosen for each drug was the amount needed to increase the mean arterial pressure (MAP) of the animal by 10%; this dosage served as the "100%" dose for the initial nasal airway studies. […] The dosage required for rats was calculated by proportionately adjusting the experimentally determined dog dosage to account for the lesser weight of the rats.
# [6] = Rat dosage calculated from the dog dosage that raises MAP by 10%; assay type: in vivo; details: calculated from the dog dosage by proportionately decreasing for the lesser weight of the rat; absolute dosage
# Method: as §1
# [7] = target: α2-receptors; assay: Alpha-2 binding, p-125iodoclonidine, canine brain (frontal cortex) membranes; design: species or system mongrel dogs; details: for pKi: Ki = IC50 / 1 + I/Kd, Kd from saturation analysis, unit inferred; for pIC50: inhibition of 50% of specific p-iodoclonidine binding, mean of several test samples; for pKd: canine cerebral cortex membranes
# Method: • PULMONARY ALPHA-1 AND BETA-2 RECEPTORS. The lungs of mongrel dogs were separated from cartilaginous airways and major blood vessels, weighed, chopped and placed into 10 volumes of ice-cold buffered sucrose (50 mM Tris-HCl, pH 7.4, 1 mM EGTA, 0.32 M sucrose). The tissue was then homogenized in a type PT10/35, size 89/PTA 20S, Polytron tissue homogenizer (Kinematica, Westbury, NY). The homogenate was filtered through two layers of cheesecloth, and the filtrate was dounced three times using a 55 ml Con-Torque Potter homogenizer (Eberbach Corporation, Ann Arbor, Ml). […] The supematant was re-centrifuged at 30,000 x g for 30 minutes at 4°C and the resulting pellet was washed and resuspended in 10 volumes of Tris buffer (50 mM Tris HCL, pH 7.4, 1 mM EGTA) and incubated at 37°C for 30 minutes in a shaking water bath. The suspension was centrifuged at 4°C at 30,000 x g for 30 minutes and the resulting pellet washed in 10 volumes of Tris buffer for a total of three additional centrifugations and washes. […] Protein concentration was determined by the Lowry method and the final suspension was adjusted to 10 mg of protein/ml, aliquoted and stored at -90°C. Particulates were also prepared for β2 receptors using the identical procedure except the final protein concentration was adjusted to 0.1 mg/ml. • BRAIN ALPHA-2 RECEPTORS: Membranes of mongrel dogs were harvested from the canine frontal cortex and prepared as described above with respect to the lungs, except that the final membrane protein concentration was adjusted to 0.5 mg/ml.
# Nonspecific binding was determined for each concentration point in separate incubations using 10 µM phentolamine. Each experimental point was determined in triplicate. […] All binding assay incubations were terminated by rapid dilution with 2 ml of ice-cold wash buffer (50 mM Tris-HCl, pH 7.4) and filtration through FP-100 Whatman GF/B fired filters (Biomedical Research & Development Lab, Gaithersburg, MD) using a Brandel receptor-binding harvester. The filters were washed twice more with 4 ml of wash buffer and then added to 6 ml Cytoscint (ICN, Costa Mesa CA) for liquid scintillation counting (Barnes et al., 23 MOL. PHARMACOL. 570-75 (1983)). […] Nonspecific binding was determined in separate incubations in the presence of 10 µM phentolamine. The final concentration of p-iodoclonidine was 44-45 pM in competition studies and between 50 pM and 10 nM in saturation experiments. Bound and free p-^125 iodoclonidine were separated and the bound quantitated as described below for the ICYP assays. […] Nonspecific binding was determined in separate incubations in the presence of 2 µM d,I-propranolol. Each experimental point was determined in triplicate. […] Incubations were terminated as described above for the α1 assays. Filters were placed into polyethylene tubes and the bound ligand was determined by gamma spectrometry(Sano et al., 52 LIFE SCIENCES 1063-70 (1993)).
# All data were analyzed with the aid of microcomputer nonlinear curve fitting programs (PRISM 2.0, Graphpad Software, San Diego CA).
# The receptors resident in each of the three membrane preparations were evaluated by standard saturation analysis following the addition of increasing concentrations of the appropriate radioligand.
# The radioligand added for subsequent α2-displacement assays was adjusted to evaluate only the high affinity receptor. Contributions from p-iodoclonidine binding to imidazoline receptors in the α2- displacement assay was evaluated with epinephrine.
# [8] = target: T1, β2-receptors (Canis lupus familiaris, UniProt P54833); assay: Beta-2 binding, 125iodocyanopindolol (ICYP), canine lung membranes; design: species or system mongrel dogs
# T1 construct: The lungs of mongrel dogs were separated from cartilaginous airways and major blood vessels; from tissue; host or cells: mongrel dog lung membranes
# T1 sequence (P54833 whole entry): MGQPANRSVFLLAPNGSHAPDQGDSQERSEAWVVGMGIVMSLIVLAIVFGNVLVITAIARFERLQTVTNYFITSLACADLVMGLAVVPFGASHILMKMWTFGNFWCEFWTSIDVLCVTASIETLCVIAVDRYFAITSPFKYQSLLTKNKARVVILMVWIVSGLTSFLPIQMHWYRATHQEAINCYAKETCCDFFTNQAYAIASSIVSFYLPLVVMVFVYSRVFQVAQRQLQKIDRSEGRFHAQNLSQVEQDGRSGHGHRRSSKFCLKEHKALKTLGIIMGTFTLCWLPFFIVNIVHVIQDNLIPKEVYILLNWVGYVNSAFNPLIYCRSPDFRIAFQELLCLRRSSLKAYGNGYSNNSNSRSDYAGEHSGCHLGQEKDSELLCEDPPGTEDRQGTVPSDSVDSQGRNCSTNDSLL
# [9] = Mean arterial blood pressure after the 75% dose in rats
# [10] = 5% of the dose that increased canine resting mean arterial pressure 10%
# [11] = 10% of the dose that increased canine resting mean arterial pressure 10%
# [12] = 25% of the dose that increased canine resting mean arterial pressure 10%
# [13] = 50% of the dose that increased canine resting mean arterial pressure 10%
# [14] = histamine-challenged rats (50 mM, 0.02 ml/nostril)
# [15] = histamine-challenged rats, relative to post-histamine level
# [16] = non-histamine-challenged rats, relative to control
smiles,measurement,setting,value
Cc1ccc(/C(=C\CN2CCCC2)c2ccccn2)cc1 [triprolidine],"effect on horizontal distance, triprolidine alone","[1]; 0.25 to 25 mg/kg, injected immediately prior to testing, 2-hour test period",failed to affect horizontal distance
same,"effect on locomotion, triprolidine alone","[1]; 50 and 100 mg/kg, beginning within 10 minutes, lasting 30 to 40 minutes",Dose-dependent depression of locomotion
"CC(N)Cc1ccccc1 (single isomer, unassigned; (+)) [(+)-amphetamine]",ED50,[2],1.3 mg/kg
same,"locomotor stimulant effects, time course (in words)",[2],dose- and time-dependent increase in the distance traversed
CN[C@@H](C)[C@@H](O)c1ccccc1 [(+)-pseudoephedrine],pKi,[3],[…]
same,%Change in nasal airway pressure,[4]; [15],-36.7 ±2.7%
same,Post Drug nasal airway pressure,[4]; non-histamine-challenged rats,7 ± 0.9 mm H2O
same,ED50,[2],12.6 mg/kg
same,"locomotor stimulant effects, time course (in words)",[2],Little or no stimulant effects
same,"Dosage of Enantiomer, Rat",[6],60 µg
same,"interaction with triprolidine pretreatment (central nervous system stimulation, horizontal movement)",[1],increased horizontal movement
CNC[C@H](O)c1cccc(O)c1 [(-)-phenylephrine],pIC50,[3],5.15
same,pKi,[3],5.52
same,Mean Decrease in Nasal Airway Pressure,[4]; [10],-1.6 ± 0.9
same,Mean Decrease in Nasal Airway Pressure,[4]; [11],-4.8 ± 0.8
same,Mean Decrease in Nasal Airway Pressure,[4]; [12],-12.1 ± 2.3
same,Mean Decrease in Nasal Airway Pressure,[4]; [13],-5.2 ± 1.6
same,Post Drug nasal airway pressure,[4]; [14],10.5 ±2.1 mm water
same,%Change in nasal airway pressure,[4]; [15],-22.3 ±8.5%
same,Post Drug nasal airway pressure,[4]; non-histamine-challenged rats,4 ± 0.2 mm H2O
same,%Change in nasal airway pressure,[4]; [16],-20.3 ± 4.3%
same,Stimulation Efficacy,[2],0
same,"Dosage of Enantiomer, Dog: dosage required to raise MAP by 10%",[5],10 µg/kg
same,"Dosage of Enantiomer, Rat",[6],3 to 5 µg
Clc1cc(I)cc(Cl)c1NC1=NCCN1 [p-iodoclonidine],pKd,"[7]; Saturation Analysis, read-out: Kd 1 (high affinity)",9.82
same,pKd,"[7]; Saturation Analysis, read-out: Kd 2 (high affinity)",8.52
same,pKd,"[7]; Scatchard Analysis, read-out: Kd 1 (high affinity)",9.82
same,pKd,"[7]; Scatchard Analysis, read-out: Kd 2 (low affinity)",9.06
"CC(C)(C)NCC(O)COc1cccc2[nH]c(C#N)c(I)c12 (stereo not shown) [ICYP, iodocyanopindolol]",pKd,"[8]; Saturation Analysis, Run 1",11.02
same,pKd,"[8]; Saturation Analysis, Run 2",11.03
same,pKd,"[8]; Saturation Analysis, Summary",11.02
same,pKd,"[8]; Scatchard Analysis, Run 1",11.00
same,pKd,"[8]; Scatchard Analysis, Run 2",11.11
same,pKd,"[8]; Scatchard Analysis, Summary",11.05
"CC(C)(C)NCC(O)COc1cccc2[nH]c(C#N)c([125I])c12 (stereo not shown) [ICYP, iodocyanopindolol]",Bmax,"[8]; Saturation Analysis, Run 1",149 femtomoles per mg protein
same,Bmax,"[8]; Saturation Analysis, Run 2",142 femtomoles per mg protein
same,Bmax,"[8]; Saturation Analysis, Summary",146 femtomoles per mg protein
same,Bmax,"[8]; Scatchard Analysis, Run 1",150 femtomoles per mg protein
same,Bmax,"[8]; Scatchard Analysis, Run 2",139 femtomoles per mg protein
same,Bmax,"[8]; Scatchard Analysis, Summary",145 femtomoles per mg protein
CN[C@@H](C)[C@H](O)c1ccccc1 [(-)-ephedrine],pKi,[3],[…]
same,effect on normal airway decongestion (in words),[4],approximately the same efficacious effect on normal airway decongestion
same,Post Drug nasal airway pressure,[4]; [14],6.4 ±0.6 mm water
same,Post Drug nasal airway pressure,[4]; non-histamine-challenged rats,6 ± 0.5 mm H2O
same,"locomotor stimulant effects, time course (in words)",[2],Dose dependent increases in locomotor activity of slower onset and longer duration
same,increase in blood pressure (in words),[9],slightly greater (though significant) increase in blood pressure than (+)-ephedrine
same,"interaction with triprolidine pretreatment (central nervous system stimulation, horizontal movement)",[1],increased horizontal movement
CN[C@H](C)[C@@H](O)c1ccccc1 [(+)-ephedrine],pKi,[3],4.40
same,effect on normal airway decongestion (in words),[4],approximately the same efficacious effect on normal airway decongestion
same,Post Drug nasal airway pressure,[4]; non-histamine-challenged rats,7 ± 0.9 mm H2O
same,ED50,[2],84.9 mg/kg
same,"locomotor stimulant effects, time course (in words)",[2],small increase in locomotor activity
same,"Dosage of Enantiomer, Rat",[6],60 µg
same,"interaction with triprolidine pretreatment (central nervous system stimulation, horizontal movement)",[1],No such central nervous system stimulation
"CNC[C@H](O)c1ccc(O)c(O)c1 [Epinephrine, epinephrine]",displacement of bound p-iodoclonidine,[7]; check for binding to imidazoline receptors in the α2-displacement assay,easily displaced all bound p-iodoclonidine
